Assay results reported in patent publication US7135466B2 (Kirin Beer Kabushiki Kaisha, priority 1999, dated 2006).
Read-outs that look alike come from different tables or passages of the source.

Columns and labels:
PDGF-Ra = molecular target: T1, PDGF-Ra (Homo sapiens, UniProt P16234); experiment: Inhibitory activity against PDGF-Ra phosphorylation by PDGF-AA stimulation using G292; assay type: cell-based; conditions: for IC50: > means inhibition at indicated concentration not more than 50%, < and << not less than 50%, read-out: PDGF (E) IC50; for inhibition at 0.1 µM: G292, figure within parentheses in >100( ), at 100 nM, read-out: PDGF (E) inhibition (%) at 100 nM
T1 construct: host or cells: G-292 human osteosarcoma cells
T1 sequence (P16234 24-1089): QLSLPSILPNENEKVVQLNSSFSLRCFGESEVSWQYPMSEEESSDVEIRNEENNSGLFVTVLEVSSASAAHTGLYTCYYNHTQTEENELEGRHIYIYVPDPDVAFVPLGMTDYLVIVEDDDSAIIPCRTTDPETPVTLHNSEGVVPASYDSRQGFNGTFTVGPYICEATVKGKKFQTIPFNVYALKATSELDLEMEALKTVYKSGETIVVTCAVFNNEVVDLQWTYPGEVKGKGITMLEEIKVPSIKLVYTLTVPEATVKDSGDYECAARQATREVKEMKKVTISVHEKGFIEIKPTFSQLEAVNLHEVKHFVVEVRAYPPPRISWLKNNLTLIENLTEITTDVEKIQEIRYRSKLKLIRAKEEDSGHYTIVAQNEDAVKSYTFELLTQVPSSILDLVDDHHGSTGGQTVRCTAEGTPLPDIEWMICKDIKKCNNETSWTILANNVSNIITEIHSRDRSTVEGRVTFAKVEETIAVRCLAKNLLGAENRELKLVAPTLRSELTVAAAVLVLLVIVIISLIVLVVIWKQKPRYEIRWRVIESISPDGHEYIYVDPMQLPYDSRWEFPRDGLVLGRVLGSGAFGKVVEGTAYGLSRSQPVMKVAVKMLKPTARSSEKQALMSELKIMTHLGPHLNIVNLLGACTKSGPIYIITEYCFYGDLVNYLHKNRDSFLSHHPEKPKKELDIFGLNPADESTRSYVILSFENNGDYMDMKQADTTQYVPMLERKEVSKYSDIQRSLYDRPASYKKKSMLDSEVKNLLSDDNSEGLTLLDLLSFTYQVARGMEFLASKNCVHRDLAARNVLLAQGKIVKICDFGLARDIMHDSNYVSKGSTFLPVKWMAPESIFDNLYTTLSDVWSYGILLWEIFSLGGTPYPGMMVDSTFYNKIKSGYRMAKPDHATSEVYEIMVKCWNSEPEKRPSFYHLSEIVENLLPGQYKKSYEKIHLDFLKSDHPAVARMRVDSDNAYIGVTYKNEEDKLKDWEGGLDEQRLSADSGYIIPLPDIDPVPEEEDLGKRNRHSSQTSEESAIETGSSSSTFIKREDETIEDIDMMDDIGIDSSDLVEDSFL
Summary of the method: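 Human osteosarcoma G-292, 0.1% FBS o/n; cpd (DMSO) 1 h 37 °C; PDGF-AA 50 ng/ml 5 min; lyse 20 min RT; PY-20 capture 4 °C o/n; anti-PDGF-Ra + HRP-GAR; OD450.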

c-kit = molecular target: T2, c-kit (Homo sapiens, UniProt P10721); experiment: Inhibitory activity against c-kit autophosphorylation (MO7e cells, h-SCF); assay type: cell-based; conditions: for IC50: MO7e cells, read-out: c-kit IC50; for inhibition at 1 µM: Mo7e, at 1000 nM
T2 construct: MO7e (human megakaryocytic leukemia cell line) which had been arrested for 20 hr; endogenous in cells; host or cells: MO7e human megakaryocytic leukemia cell line
T2 sequence (P10721 26-976): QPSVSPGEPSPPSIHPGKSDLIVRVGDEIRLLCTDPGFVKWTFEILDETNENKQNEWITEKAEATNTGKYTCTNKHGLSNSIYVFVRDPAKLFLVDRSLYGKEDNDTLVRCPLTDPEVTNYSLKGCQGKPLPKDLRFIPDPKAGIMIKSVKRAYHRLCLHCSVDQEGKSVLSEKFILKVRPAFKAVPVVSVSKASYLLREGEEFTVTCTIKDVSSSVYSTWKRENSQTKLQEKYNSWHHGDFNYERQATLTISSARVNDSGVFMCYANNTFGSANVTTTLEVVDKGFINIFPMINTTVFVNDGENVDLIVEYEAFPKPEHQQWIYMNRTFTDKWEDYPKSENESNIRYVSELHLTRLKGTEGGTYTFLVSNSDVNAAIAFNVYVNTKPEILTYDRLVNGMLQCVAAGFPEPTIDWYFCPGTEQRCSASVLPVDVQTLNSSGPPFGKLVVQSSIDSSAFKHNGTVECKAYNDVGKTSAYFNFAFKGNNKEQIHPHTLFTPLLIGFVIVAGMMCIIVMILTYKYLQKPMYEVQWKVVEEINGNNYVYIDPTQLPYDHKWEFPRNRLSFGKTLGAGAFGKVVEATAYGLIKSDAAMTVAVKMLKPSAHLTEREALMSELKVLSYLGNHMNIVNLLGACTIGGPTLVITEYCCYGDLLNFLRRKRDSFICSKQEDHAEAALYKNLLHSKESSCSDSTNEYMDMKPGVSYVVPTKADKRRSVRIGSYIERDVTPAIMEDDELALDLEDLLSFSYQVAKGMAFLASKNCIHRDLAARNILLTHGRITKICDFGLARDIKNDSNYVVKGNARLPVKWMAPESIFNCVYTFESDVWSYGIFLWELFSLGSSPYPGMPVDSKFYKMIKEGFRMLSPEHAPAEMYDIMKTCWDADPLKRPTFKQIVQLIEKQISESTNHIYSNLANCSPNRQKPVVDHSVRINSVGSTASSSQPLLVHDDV
Summary of the method: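 MO7e cells, arrested for 20 hr, were pretreated with test compound in DMSO for 1 hr and then stimulated with 50 ng/ml h-SCF for 5 min before lysis. Lysates were captured on immobilized anti-phosphotyrosine PY-20, probed with anti-c-kit antibody and HRP anti-rabbit IgG, and read colorimetrically at 450 nm.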

| SMILES | IC50 (PDGF-Ra) | IC50 (PDGF-Ra; Pharmacological Test Example 1) | also measured |
| --- | --- | --- | --- |
| COc1cc2nccc(Oc3ccc(NC(=S)NC(=O)C4(C)CCCCC4)cc3Cl)c2cc1OC [Example 1192, N-{3-Chloro-4-[(6,7-dimethoxy-4-quinolyl)oxy]phenyl}-N′-[(1-methylcyclohexyl)carbonyl]thiourea] | 19 nM | – | IC50 (c-kit; h-SCF stimulation): 672 nM |
| COc1cc2nccc(Oc3ccc(NC(=O)OC(C)c4ccccc4Br)cc3)c2cc1OC (centres unmarked) [Example 112, 1-(2-Bromophenyl)ethyl N-{4-[(6,7-dimethoxy-4-quinolyl)oxy]phenyl}carbamate] | – | 16 nM | IC50 (c-kit; h-SCF 50 ng/ml): 214 nM |
| COc1cc2ncnc(Oc3ccc(NC(=O)OC(C)c4ccccc4F)c(Cl)c3)c2cc1OC (centres unmarked) [Example 126, 1-(2-Fluorophenyl)ethyl N-{2-chloro-4-[(6,7-dimethoxy-4-quinazolinyl)oxy]phenyl}carbamate] | – | 19 nM | inhibition at 1 µM (c-kit; figure in parentheses in −( )): 10% |
| COc1cc2nccc(Oc3ccc(NC(=O)OCc4ccncc4)cc3)c2cc1OC [Example 433, 4-Pyridylmethyl N-{4-[(6,7-dimethoxy-4-quinolyl)oxy]phenyl}carbamate] | 11 nM | – | IC50 (c-kit; 50 ng/ml h-SCF): < 30 nM |
| COc1ccc(OCCCOC(=O)Nc2ccc(Oc3ncnc4cc(OC)c(OC)cc34)cc2Cl)cc1 [Example 46, 3-(4-Methoxyphenoxy)propyl N-{2-chloro-4-[(6,7-dimethoxy-4-quinazolinyl)oxy]phenyl}carbamate] | – | 22 nM | IC50 (c-kit; h-SCF 50 ng/ml): 388 nM |
| COc1cc2nccc(Oc3ccc(NC(=S)NC(=O)c4ccc(Br)s4)cc3Cl)c2cc1OC [Example 693, N-[(5-Bromo-2-thienyl)carbonyl]-N′-{3-chloro-4-[(6,7-dimethoxy-4-quinolyl)oxy]phenyl}thiourea] | 56 nM | – | IC50 (c-kit; 50 ng/ml h-SCF): > 1000 nM; inhibition at 1 µM (c-kit; figure within parentheses in −( ) or >1000( )): 46% |
| COc1ccccc1COC(=O)Nc1ccc(Oc2ccnc3cc(OC)c(OC)cc23)cc1 [Example 248, 2-Methoxybenzyl N-{4-[(6,7-dimethoxy-4-quinolyl)oxy]phenyl}carbamate] | – | 11 nM | IC50 (c-kit; h-SCF 50 ng/ml): 147 nM |
| CCOC(=O)N1CCC(NC(=O)Nc2ccc(Oc3ccnc4cc(OC)c(OC)cc34)cc2)CC1 [Example 561, Ethyl 4-[({4-[(6,7-dimethoxy-4-quinolyl)oxy]anilino}carbonyl)amino]-1-piperidine-carboxylate] | < 10 nM | – | IC50 (c-kit; 50 ng/ml h-SCF): 54 nM |
| COc1cc2nccc(Oc3ccc(NC(=S)NC(=O)c4ccccc4Cl)c(Cl)c3)c2cc1OC [Example 1104, N-(2-Chlorobenzoyl)-N′-{2-chloro-4-[(6,7-dimethoxy-4-quinolyl)oxy]phenyl}thiourea] | 77 nM | – | inhibition at 1 µM (c-kit; figure in parentheses in −( )): 23% |
| CCCC(CC)OC(=O)Nc1ccc(Oc2ccnc3cc(OC)c(OC)cc23)cc1 (centres unmarked) [Example 258, 1-Ethylbutyl N-{4-[(6,7-dimethoxy-4-quinolyl)oxy]phenyl}carbamate] | – | 3 nM | IC50 (c-kit; h-SCF 50 ng/ml): 178 nM |
| COc1cc2nccc(Oc3ccc(NC(=O)OC4CCOCC4)cc3)c2cc1OC [Example 470, Tetrahydro-2H-4-pyranyl N-{4-[(6,7-dimethoxy-4-quinolyl)oxy]phenyl}carbamate] | 26 nM | – | IC50 (c-kit; 50 ng/ml h-SCF): 128 nM |
| COc1cc(Oc2ncnc3cc(OC)c(OC)cc23)ccc1NC(=O)NC1CCN(Cc2ccccc2C)C1 (centres unmarked) [Example 571, N-{4-[(6,7-Dimethoxy-4-quinazolinyl)oxy]-2-methoxyphenyl}-N′-[1-(2-methylbenzyl)tetrahydro-1H-3-pyrrolyl]urea] | 32 nM | – | IC50 (c-kit; 50 ng/ml h-SCF): 556 nM |
| C=CCOC(=O)Nc1ccc(Oc2ccnc3cc(OC)c(OC)cc23)c(C)c1C [Example 374, Allyl N-{4-[(6,7-dimethoxy-4-quinolyl)oxy]-2,3-dimethylphenyl}carbamate] | – | < 10 nM | IC50 (c-kit; h-SCF 50 ng/ml): < 30 nM |
| COc1cc2nccc(Oc3ccc(OCCCOc4ccc(F)cc4)cc3)c2cc1OC [Example 798, 4-{4-[3-(4-Fluorophenoxy)propoxy]phenoxy}-6,7-dimethoxyquinoline] | < 10 nM | – | IC50 (c-kit; 50 ng/ml h-SCF): 439 nM |
| COc1cc2ncnc(Oc3ccc(NC(=S)NC(=O)C4(C)CCCCC4)cc3)c2cc1OC [Example 1193, N-{4-[(6,7-Dimethoxy-4-quinazolinyl)oxy]phenyl}-N′-[(1-methylcyclohexyl)carbonyl]thiourea] | < 10 nM | – | inhibition at 1 µM (c-kit; figure in parentheses in −( )): 18% |
| CCCC(CC)OC(=O)Nc1ccc(Oc2ncnc3cc(OC)c(OC)cc23)cc1 (centres unmarked) [Example 337, 1-Ethylbutyl N-{4-[(6,7-dimethoxy-4-quinazolinyl)oxy]phenyl}carbamate] | – | < 10 nM | IC50 (c-kit; h-SCF 50 ng/ml): 198 nM |
| CCN(CCNC(=O)Nc1ccc(Oc2ncnc3cc(OC)c(OC)cc23)cc1OC)c1cccc(C)c1 [Example 668, N-{4-[(6,7-Dimethoxy-4-quinazolinyl)oxy]-2-methoxyphenyl}-N′-[2-(ethyl-3-methylanilino)ethyl]urea] | < 10 nM | – | IC50 (c-kit; 50 ng/ml h-SCF): 144 nM |

| SMILES | IC50 (PDGF-Ra) | IC50 (PDGF-Ra; Pharmacological Test Example 1) | also measured |
| --- | --- | --- | --- |
| COc1cc2ncnc(Oc3ccc(NC(=O)NC4CCN(CC5CCCCC5)C4)cc3)c2cc1OC (centres unmarked) [Example 586, N-[1-(Cyclohexylmethyl)tetrahydro-1H-3-pyrrolyl]-N′-{4-[(6,7-dimethoxy-4-quinazolinyl)oxy]phenyl}urea] | 63 nM | – | IC50 (c-kit; 50 ng/ml h-SCF): 734 nM |
| COc1cc2nccc(Oc3cc(C)c(NC(=O)OC4CCCN(C)C4)cc3C)c2cc1OC (centres unmarked) [Example 463, 1-Methyl-3-piperidyl N-{4-[(6,7-dimethoxy-4-quinolyl)oxy]-2,5-dimethylphenyl}carbamate] | 91 nM | – | IC50 (c-kit; 50 ng/ml h-SCF): 432 nM |
| CCN(CC)CCCNC(=S)Nc1cc(C)c(Oc2ccnc3cc(OC)c(OC)cc23)cc1C [Example 551, N-{4-[(6,7-Dimethoxy-4-quinolyl)oxy]-2,5-dimethylphenyl}-N′-(3-diethylaminopropyl)thiourea] | > 100 nM | – | inhibition at 0.1 µM (PDGF-Ra): 19% |
| COc1cc2nccc(Oc3ccc(NC(=S)NC(=O)C(C)(C)Oc4ccc(Cl)cc4)cc3)c2cc1OC [Example 757, N-[2-(4-Chlorophenoxy)-2-methylpropanoyl]-N′-{4-[(6,7-dimethoxy-4-quinolyl)oxy]phenyl}thiourea] | > 100 nM | – | inhibition at 0.1 µM (PDGF-Ra): 45% |
| COc1cc2nccc(Oc3ccc(NC(=O)Oc4cccc(C#N)c4)cc3)c2cc1OC [Example 457, 3-Cyanophenyl N-{4-[(6,7-dimethoxy-4-quinolyl)oxy]phenyl}carbamate] | > 100 nM | – | inhibition at 0.1 µM (PDGF-Ra): 29% |
| COc1cc2nccc(Oc3cc(C)c(NC(=O)OC(C#N)c4ccccc4)cc3C)c2cc1OC (centres unmarked) [Example 454, Cyano(phenyl)methyl N-{4-[(6,7-dimethoxy-4-quinolyl)oxy]-2,5-dimethylphenyl}carbamate] | > 100 nM | – | inhibition at 0.1 µM (PDGF-Ra): 23% |
| COc1cc2ncnc(Oc3ccc(O)cc3)c2cc1OC [Example 773, 4-[(6,7-Dimethoxy-4-quinazolinyl)oxy]phenol] | > 100 nM | – | – |
| COc1cc2nccc(Oc3ccc(NC(=S)NC(=O)C(C)Oc4ccccc4)cc3Cl)c2cc1OC (centres unmarked) [Example 746, N-{3-Chloro-4-[(6,7-dimethoxy-4-quinolyl)oxy]phenyl}-N′-(2-phenoxypropanoyl)thiourea] | > 100 nM | – | inhibition at 0.1 µM (PDGF-Ra): 31% |
| COc1cc2nccc(Oc3ccc(NC(=S)NC(=O)c4cc(C)ccc4C)cc3Cl)c2cc1OC [Example 1017, N-{3-Chloro-4-[(6,7-dimethoxy-4-quinolyl)oxy]phenyl}-N′-(2,5-dimethylbenzoyl)thiourea] | 48 nM | – | – |
| COc1cc2nccc(Oc3cc(C)c(NC(=O)Sc4ccc(Cl)cc4C)cc3C)c2cc1OC [Example 178, 4-Chloro-2-methylphenyl{4-[(6,7-dimethoxy-4-quinolyl)oxy]-2,5-dimethylanilino}methanethioate] | – | > 100 nM | – |
| COc1cc2nccc(Oc3ccc(NC(=S)NC(=O)CCCCc4ccccc4)cc3)c2cc1OC [Example 727, N-{4-[(6,7-Dimethoxy-4-quinolyl)oxy]phenyl}-N′-(5-phenylpentanoyl)thiourea] | 52 nM | – | – |
| COc1cc2nccc(Oc3cc(C)c(NC(=S)NN4CCCCC4)cc3C)c2cc1OC [Example 522, N-{4-[(6,7-Dimethoxy-4-quinolyl)oxy]-2,5-dimethylphenyl}-N′-(1-piperidinyl)thiourea] | > 100 nM | – | – |
| CCN(CC)C(C)CNC(=S)Nc1ccc(Oc2ccnc3cc(OC)c(OC)cc23)cc1 (centres unmarked) [Example 588, N-{4-[(6,7-Dimethoxy-4-quinolyl)oxy]phenyl}-N′-(2-diethylaminopropyl)thiourea] | 36 nM | – | – |
| COc1cc2nccc(Oc3ccc(NC(=O)OCCC4CCCCC4)cc3)c2cc1OC [Example 353, 2-Cyclohexylethyl N-{4-[(6,7-dimethoxy-4-quinolyl)oxy]phenyl}carbamate] | – | < 10 nM | – |
| CCCCOc1ccc(C(=O)NC(=S)Nc2ccc(Oc3ccnc4cc(OC)c(OC)cc34)c(Cl)c2)cc1 [Example 752, N-(4-Butoxybenzoyl)-N′-{3-chloro-4-[(6,7-dimethoxy-4-quinolyl)oxy]phenyl}thiourea] | > 100 nM | – | inhibition at 0.1 µM (PDGF-Ra): 37% |
| COc1cc2nccc(Oc3cc(C)c(NC(=O)OC(C)c4cccc(N(C)C)c4)cc3C)c2cc1OC (centres unmarked) [Example 201, 1-[3-(Dimethylamino)phenyl]ethyl N-{4-[(6,7-dimethoxy-4-quinolyl)oxy]-2,5-dimethylphenyl}-carbamate] | – | > 100 nM | – |
